Data as given in patent US5571806A, “Dibenz[b,f][1,4]oxazepin(and thiazepin)-11(10H)-ones and-thiones and their use in the prevention or treatment of HIV infection” (Boehringer Ingelheim Pharmaceuticals, Inc., priority 1994, dated 1996).
Read-outs that look alike come from different tables or passages of the source.

Assays:
[1] = molecular target: T1, HIV-1 reverse transcriptase (Human immunodeficiency virus type 1 group M subtype B, UniProt P03367); assay: Reverse Transcriptase (RT) Assay (RNA-dependent DNA polymerase activity); format: biochemical, Human Immunodeficiency Virus (HIV-1), LAV strain; conditions: read-out: RT Inhibition (% @ 10 μg/ml)
T1 construct: Reverse transcriptase enzyme from the LAV strain of Human Immuno-deficiencyVirus (HIV-1); made in house; host or cells: E. coli JM109 (species of the strain is own knowledge), DNA clone pBRTprtl+ in expression vector pIBI21 (lac promoter)
Source text: As stated before, the compounds of formula I inhibit the enzymatic activity of HIV-1 RT. Based upon testing of these compounds, as described below, it is known that they inhibit the RNA-dependent DNA polymerase activity of HIV RT.
Utilizing the Reverse Transcriptase (RT) Assay described below, compounds can be tested for their ability to inhibit the RNA-dependent DNA polymerase activity of HIV RT. Certain specific compounds, described in the Examples which appear below, were so tested.
Among the enzymes for which Human Immunodeficiency Virus (HIV-1) encodes is a reverse transcriptase (1), so-named because it transcribes a DNA copy from an RNA template. This activity can be quantitatively measured in a cell-free enzyme assay which has been previously described (2), and is based upon the observation that reverse transcriptase is able to use a synthetic template [poly r(C) primed with oligo d(G)] to transcribe a radio-labelled, acid-precipitable DNA strand utilizing ^3 H-dGTP as a substrate. […]
a) Preparation of the enzyme
Reverse transcriptase enzyme from the LAV strain of Human Immuno-deficiencyVirus (HIV-1) (1) was isolated from the bacterial strain JM109 (3) expressing the DNA clone pBRTprtl+(2) which is under the control of the lac promotor in the expression vector pIBI21 (4). An overnight culture grown in 2XYT medium (37° C., 225 rpm) (5) supplemented with […] ampicillin for positive selection is inoculated at a 1:40 dilution into M9 medium supplemented with 10 mg/ml thiamine, 0.5% casamino acids, and […] ampicillin (5). The culture is incubated (37° C., 225 rpm) until it reaches an OD540 of 0.3-0.4. At that time the repressor inhibitor IPTG (isopropyl b-D-thiogalactopyranoside) is added to 0.5 mM and incubated for 2 additional hours. Bacteria are pelletted, resuspended in a 50 mM Tris, 0.6 mM EDTA, 0.375M NaCl buffer and digested by the addition of lysozyme (1 mg/ml) for 30 minutes on ice. The cells are lysed by the addition to 0.2% NP-40 and brought to 1M NaCl.
After removal of the insoluble debris by centrifugation, the protein is precipitated by the addition of 3 volumes of saturated aqueous ammonium sulfate. The enzyme is pelleted, resuspended in RT buffer (50 mM Tris pH 7.5, 1 mM EDTA, 5 mMDTT, 0.1% NP-40, 0.1M NaCl, and 50% glycerol) and stored at -70° C. for further use. […]
b) Composition of 2X concentrated stock reaction mixture
Stock Reagent 2X Mix Concentration
[poly r(C)/oligo d(G)](5:1)
The 2X concentrated stock reaction mixture is aliquoted and stored at -20° C. The mixture is stable and thawed for use in each assay. This enzyme assay has been adapted to a 96 well microtiter plate system, and has been previously described (6). Tris buffer (50 mM, pH 7.4), vehicle (solvent diluted to match the compound dilution), or compounds in vehicle are dispensed into 96-well microtiter plates (10 μl/well; 3 wells/compound). The HIV RT enzyme is thawed, diluted in 50 mM Tris pH 7.4 so that fifteen μl of diluted enzyme contain 0.001 Unit (one unit is that amount of enzyme to transform 1 micromole of substrate per minute at 25° C.), and 15 μl are dispensed per well. Twenty μl of 0.12-0.5M EDTA are added to the first three wells of the microtiter plate. EDTA chelates the Mg^++ present and prevents reverse transcription. This group serves as background polymerization which is subtracted from all other groups. Twenty-five μl of the 2X reaction mixture are added to all wells and the assay is allowed to incubate at room temperature for 60 minutes. The assay is terminated by precipitating the DNA in each well with 50μl of 10% trichloracetic acid (TCA) in 1% sodium pyrophosphate. The microtiter plate is incubated for 15 minutes at 4° C. and the precipitate is fixed onto #30 glass fiber paper (Schleicher & Schuell) using a Skatron semi-automatic harvester. […]

HIV-1 = assay: Human T Cell Culture Assay (HIV-1 induced syncytia formation in C8166 cells); format: cell-based, HIV-1 HTLV-IIIB strain (human C8166 T-cells); conditions: HTLV-IIIB, four days after virus challenge, compound concentration not given
Description: In order to confirm that compounds which are active in the RT Assay also have the ability to inhibit HIV replication in a living system, a compound of formula I was also tested in the human T-Cell Culture Assay described below.
Assay Theory: Formation of syncytia is a feature of in vitro cultures of CD4+ T-cells infected with HIV-1. In this assay, T-cells are treated with a putative replication inhibiting compound and then infected with HIV-1. After incubation the culture is checked for the formation of syncytia. The absence or reduction is the number of syncytia is used as a measure of the test compound's ability to inhibit HIV replication.
Assay Method: The target cells, designated C8166, are a subclone of human lymphoma cells of T-cell origin and are established at an initial density of 5×10^4 per 100 μl in RPMI 1640 (+10% fetal bovine serum) culture medium in 96 well flat bottom plates. A selected amount of test compound, dissolved in DMSO is included. After 24 hours, 50-100 TCID50 's (the dose that results in induced effect in 50% of test cultures) of the HTLV-IIIB strain of HIV-1 (2) are innoculated into each culture. Control cultures receive compound or virus only. […] The percent inhibition by the test compound is determined by comparison with control values. […]

[2] = 10 μg/ml, poly r(C)/oligo d(G) template, 60 minutes, room temperature

SMILES	inhibition at 10 µg/mL [1, 2]	also measured
CCN1C(=O)c2cc(N)ccc2Oc2ccccc21 [Example 16]	100%	–
CCOc1ccc2c(c1)Oc1ccccc1C(=O)N2C [Example 32]	77%	–
CSCCN1C(=O)c2ccccc2Oc2cc(C)ccc21 [Example 39]	95%	–
Nc1ccc2c(c1)C(=O)Nc1ccccc1O2 [Example 14]	85%	–
CCN1C(=O)c2cc(N)ccc2Oc2ccc(Cl)cc21 [Example 20]	95%	–
Cc1ccc2c(c1)Oc1ccccc1C(=O)N2C[S+](C)[O-] (stereo not drawn) [Example 40]	77%	–
COc1cccc2c1Oc1ccccc1N(CC(N)=O)C2=O [Example 13]	32%	–
CN1C(=O)c2cc(N)ccc2Oc2ccccc21 [Example 22]	99%	–
C=CCN1C(=O)c2ccccc2Oc2cc(N)ccc21 [Example 29]	–	inhibition at 10 µg/mL [1]: 89%
CC(C)N1C(=O)c2ccccc2Oc2ccccc21 [Example 2, 10-Isopropyl-10H-Dibenz[b,f][1,4]Oxazepin-11-One]	100%	–
Nc1ccc2c(c1)Oc1ccccc1C(=O)N2 [Example 21]	3%	–
Nc1ccc2c(c1)C(=O)Nc1cc(Cl)ccc1O2 [Example 17]	67%	–
CCCN1C(=O)c2ccccc2Oc2ccccc21 [Example 1, 10-Propyl-10H-Dibenz[b,f][1,4]Oxazepin-11-One]	100%	T-Cell Culture Assay (% inhibition) (HIV-1): 93%
CCC(=O)N1C(=O)c2ccccc2Oc2ccccc21 [Example 12]	44%	–
CCN1C(=O)c2cc(N)ccc2Oc2ccc(C)cc21 [Example 19]	100%	–
CCCN1C(=S)c2ccccc2Oc2ccccc21 [Example 3, 10 -Propyl-10H-Dibenz [b,f][1,4]Oxazepin-11-Thione]	94%	–
C=CCN1C(=O)c2cc(N)ccc2Oc2ccccc21 [Example 27]	100%	–
CNc1ccc2c(c1)C(=O)N(C)c1ccccc1O2 [Example 26]	75%	–
Cc1ccc2c(c1)NC(=O)c1cc(N)ccc1O2 [Example 18]	71%	–
CSCCN1C(=O)c2ccc(Cl)cc2Oc2ccccc21 [Example 38]	83%	–
CNc1ccc2c(c1)C(=O)Nc1ccccc1O2 [Example 28]	30%	–
CSCN1C(=O)c2ccc(Cl)cc2Oc2ccccc21 [Example 37]	98%	–
CN1C(=O)c2ccccc2Sc2ccccc21 [Example 49]	94%	–
CCOC(=O)CN1C(=O)c2ccccc2Oc2ccccc21 [Example 43]	76%	–
CCN1C(=O)c2ccccc2Oc2ccccc21 [Example 8]	100%	–

SMILES	inhibition at 10 µg/mL [1, 2]	also measured
O=C1c2ccccc2Oc2ccccc2N1CCF [Example 46]	93%	–
C=C(C)CN1C(=O)c2ccccc2Oc2ccccc21 [Example 11]	77%	–
CCOc1ccc2c(c1)Oc1ccccc1C(=O)N2CC [Example 33]	74%	–
C=CCN1C(=O)c2ccccc2Oc2ccccc21 [Example 9]	98%	–
CN1C(=O)c2ccc(N)cc2Oc2ccccc21 [Example 25]	26%	–
CN1C(=O)c2ccccc2Oc2cc(N)ccc21 [Example 24]	44%	–
O=C1Nc2ccccc2Oc2ccccc21 [Example 7]	22%	–
Cc1ccc2c(c1)Oc1ccc(N)cc1C(=O)N2 [Example 30]	96%	–
CN1C(=O)c2ccccc2Oc2ccccc21 [Example 10]	93%	–
CSCCN1C(=O)c2ccccc2Oc2ccccc21 [Example 36]	85%	–
O=C1c2ccccc2Oc2ccccc2N1CC(F)(F)F [Example 48]	87%	–
C[S+]([O-])CN1C(=O)c2ccccc2Oc2ccccc21 (stereo not drawn) [Example 35]	58%	–
O=C1Nc2ccccc2Sc2ccccc21 [Example 4, Dibenz[b,f][1,4]Thiazepin-11(10H)-One]	43%	–
NC(=O)CN1C(=O)c2ccccc2Sc2ccccc21 [Example 50]	66%	–
COc1ccc2c(c1)Oc1cccc(OC)c1C(=O)N2 [Example 45]	44%	–
CSCCN1C(=O)c2cc(Cl)ccc2Oc2ccccc21 [Example 41]	49%	–
Cc1ccc2c(c1)Oc1ccccc1C(=O)N2CC(N)=O [Example 31]	77%	–
NC(=O)CN1C(=O)c2cc(N)ccc2Oc2ccccc21 [Example 15]	82%	–
O=C1c2ccccc2Oc2ccccc2N1C(F)=CI [Example 47]	92%	–
CCOc1ccc2c(c1)Oc1ccccc1C(=O)N2 [Example 42]	30%	–
Cc1ccc2c(c1)Oc1ccc(N)cc1C(=O)N2C [Example 6, 2-Amino-7,10-Dimethyldibenz[b,f][1,4]Oxazepin-11(10H)-One]	–	inhibition at 10 µg/mL [1]: 100%
CSCN1C(=O)c2ccccc2Oc2ccccc21 [Example 34]	100%	–
COc1ccc2c(c1)Oc1ccccc1C(=O)N2 [Example 44]	27%	–
Nc1ccc2c(c1)Oc1ccccc1NC2=O [Example 23]	25%	–
CCCN1C(=O)c2ccccc2Sc2ccccc21 [Example 5, 10-n-Propyl-Dibenz[b,f][1.4]Thiazepin-11(10H)-One]	98%	–
